Assay results reported in patent US20200022998A1, “MEDICAL USE OF NOTCH4 OR INHIBITORS THEREOF” (BEIJING INSTITUTE OF GENOMICS, CHINESE ACADEMY OF SCIENCES, priority 2016, published 2020).
Entries after “also recorded” stand apart in the source; their conditions may differ.

Assays:
Format in all cases: cell-based, human
normal iPSC BC1 = test: in vitro megakaryocyte lineage differentiation of iPSC BC1 (spin-EB), flow cytometry at Day 14; details: for decrease of proportion of HSPCs (CD34+CD45+) vs DMSO control / proportion of MKPs (CD34+CD41+) produced, increased fold vs DMSO control (set as 1) / proportion of mature megakaryocytes MKs (CD41+CD42+) produced, increased fold vs DMSO control (set as 1): FIG. 7A; for production of megakaryocyte progenitor cells and/or mature megakaryocytes in vitro: screen in the in vitro differentiation system of stem cells
Description: BC1 cell line was cultured in E8 medium, under the culture condition of 37° C., 5% CO2, and was passaged at (1:5)-(1:10) every 3-4 days depending on the concentration of cells. The cells were incubated in 0.5 mM EDTA, at room temperature for 2 min, and then were re-suspended and split up and down with E8 medium, and transferred to a culture dish that had been coated with Vitronectin one hour before.
During differentiation, spin-embryoid body (spin-EB) method was used (Ng E S, Davis R, Stanley E G, Elefanty A G, A protocol describing the use of a recombinant protein-based, animal product-free medium (APEL) for human embryonic stem cell differentiation as spin embryoid bodies, Nat Protoc. 2008; 3(5): 768-76.). At Day 0 (D0) after differentiation, iPSCs reached a confluence of above 85% (confluence refers to the percentage of the surface of a culture dish that is covered by adherent cells). After digestion with Accutase at 37° C. for 3 min, the cells were neutralized and split in SFM medium (50% IMDM, 50% Ham's F12, and the added reagents and factors including: human albumin, monothioglycerol, Glutamax, Chemically Defined Lipid Concentrate, L-Ascorbic acid 2-phosphate sesquimagnesium salt hydrate, ITS-X), counted, and centrifuged. After the cells were re-suspended in SFM, cytokines, i.e. 10 μM ROCK inhibitor (Rho-associated protein kinase inhibitor), 10 ng/ml bFGF, and 10 ng/ml BMP4, were added. Cells were seeded to a round-bottom 96-well plate, at 3000 or 5000 cells/50 μl for each well (3000 or 5000 cells were seeded to each well, in a volume of 50 μl for each well). At Day 2, 50 μl SFM medium+10 ng/ml bFGF+10 ng/ml BMP4+100 ng/ml SCF+20 ng/ml VEGF was added to each well. At Day 5, Day 8, and Day 11, 50 μl SFM medium+10 ng/ml bFGF+10 ng/ml BMP4+50 ng/ml SCF+10 ng/ml VEGF was added to each well, wherein 100 μl old medium was pipetted off at Day 8, and 10 ng/ml thrombopoietin (TPO) was added to each well at Day 11.
At Day 14 (D14), single cells (suspending cells) surrounding embryoid bodies (EBs) were collected. The cells were used in the following flow cytometry.
The cell surface markers (CD34, CD45, CD41, CD42) of the collected cells were detected by flow cytometer. The assay was as followed.
The detection was carried out in four tubes: the first tube was a negative tube that was not labeled with any flow antibody; the second tube was labelled with two antibodies CD34-APC and CD45-PE; the third tube was labeled with CD34-APC and CD41-PE; and the fourth tube was labeled with CD41-PE and CD42-APC, wherein CD34^+CD45^+represented the population of hematopoietic stem/progenitor cells (HSPCs), CD34^+CD41^+ represented the population of megakaryocyte progenitor cells (MKPs), and CD41^+CD42^+ represented the population of mature megakaryocytes (MKs).
(1) The BC1 cell line used was the same as the one used in Example 1, and was divided into three groups, wherein two 96-well plates were used for each group, and the cells were seeded at 5000 cells/50 μl to each well. In vitro differentiation was carried out by reference to the steps in Example 1, wherein the step of adding a drug was carried out in accordance with the following steps in I-III groups:
I. At Day 0 after differentiation, 10 μM RO4929097 was added, and DMSO was added to the control well.
III. At Day 2 after differentiation, 10 μM RO4929097, 10 μM L-685458, and 10 μM DAPT were added, respectively; in addition, at Day 5 after differentiation, 10 μM RO4929097, 10 μM L-685458, and 10 μM DAPT were added, respectively.
(2) The cells were collected for flow cytometry analysis, and as to the steps, please refer to the Example 1 above. […]
I. At Day 0 after differentiation, 10 μM RO4929097, and 10 μM DAPT were added, respectively.
II. At Day 2 after differentiation, 10 μM RO4929097, and 10 μM DAPT were added, respectively.
III. At Day 5 after differentiation, 10 μM RO4929097, and 10 μM DAPT were added, respectively.
IV. […]

[1] = test system: umbilical cord blood-derived CD34+ cells; test: megakaryocyte colony forming unit (MK-CFU) experiment, umbilical cord blood-derived CD34+ cells; details: 10 μM; FIG. 16
Description: Megakaryocyte colony forming unit (MK-CFU) experiment: at Day 14, the cells resulted from induced differentiation were collected, and 7,500 single cells were seeded to collagen-based MegaCult-C Kit. After incubation for 10-12 days, the cells were stained with anti-CD41 antibody and counted. CD41^+ megakaryocyte colonies were counted.

[2] = test system: umbilical cord blood-derived CD34+ cells; test: proplatelet formation, umbilical cord blood-derived CD34+ cells; details: 10 μM; DMSO about 44%; FIG. 20D
Description: iPSC-derived CD34^+ cells (prepared by the method as described in Example 3-2) and umbilical cord blood-derived CD34^+ cells were seeded at 1*10^6 cells per well to 4 ml StemSpan™ SFEM 11+50 ng/ml SCF+50 ng/ml TPO+50 ng/ml IL-6+20 ng/ml IL-3, in a 12-well plate, with 1 ml medium for each well, and 3 wells in total for each cell line, to which 10 μM RO4929097, 10 μM DAPT, and the same volume of DMSO as control, were added, respectively, and the time was recorded as Day 0. The liquid was changed every 3 days, and the culture condition was 37° C., 5% CO2. After iPSC-derived CD34^+ cells were incubated for 6 days, and umbilical cord blood-derived CD34^+ cells were incubated for 9 days, the following experiment was carried out.
Proplatelet formation of MKs referred to mature megakaryocytes, which extended long and branched filaments and cytoplasmic protrusions.

[3] = 10 μM at Day 5 after in vitro differentiation, found by comparison

Structure (SMILES): C[C@H](NC(=O)Cc1cc(F)cc(F)c1)C(=O)N[C@H](C(=O)OC(C)(C)C)c1ccccc1 [DAPT]
- decrease of proportion of HSPCs (CD34+CD45+) vs DMSO control (normal iPSC BC1; 10 μM added at Day 2): 35%
- proportion of MKPs (CD34+CD41+) produced, increased fold vs DMSO control (set as 1) (normal iPSC BC1; 10 μM added at Day 2): about 1.5 folds
- proportion of mature megakaryocytes MKs (CD41+CD42+) produced, increased fold vs DMSO control (set as 1) (normal iPSC BC1; 10 μM added at Day 2): about 2.4 folds
- number of MKPs (CD34+CD41+) produced, increase vs DMSO control (normal iPSC BC1; 10 μM added at Day 2, FIG. 9): 2.5 folds
- number of mature megakaryocytes MKs (CD41+CD42+) produced, increase vs DMSO control (normal iPSC BC1; 10 μM added at Day 2, FIG. 9): 4.3 folds
- proportion of HSPCs produced, increased fold vs DMSO control (set as 1) (normal iPSC BC1; 10 μM added at Day 5, FIG. 7B): about 1.5 folds
- proportion of MKPs produced, increased fold vs DMSO control (set as 1) (normal iPSC BC1; 10 μM added at Day 5, FIG. 7B): about 1.5 folds
- proportion of mature megakaryocytes MKs produced, increased fold vs DMSO control (set as 1) (normal iPSC BC1; 10 μM added at Day 5, FIG. 7B): about 4.1 folds
- total number of hematopoietic cells, increase vs control group (normal iPSC BC1; 10 μM added at Day 5, FIG. 7B): 2.8 folds
- number of HSPCs (CD34+CD45+), increase vs DMSO control (normal iPSC BC1; 10 μM added at Day 5, FIG. 10): 2.8 folds
- number of MKPs (CD34+CD41+) produced, increase vs DMSO control (normal iPSC BC1; 10 μM added at Day 5, FIG. 10): about 6.5 folds
- number of mature megakaryocytes MKs (CD41+CD42+) produced, increase vs DMSO control (normal iPSC BC1; 10 μM added at Day 5, FIG. 10): about 6.7 folds
- number of MKPs (CD34+CD41+) produced, increase vs DMSO control (normal iPSC BC1; 10 μM added at Day 8, FIG. 12): 1.5 folds
- number of mature megakaryocytes MKs (CD41+CD42+) produced, increase vs DMSO control (normal iPSC BC1; 10 μM added at Day 8, FIG. 12): 1.5 folds
- number of mature megakaryocytes MKs (CD41+CD42+) produced, increase vs DMSO control (normal iPSC BC1; 10 μM added at Day 11, FIG. 13): 1.3 folds
- promotion of the production of mature megakaryocytes (normal iPSC BC1; [3]): ~12 folds
- promotion of the production of megakaryocyte progenitor cells (normal iPSC BC1; [3]): 4 folds
- production of megakaryocyte progenitor cells and/or mature megakaryocytes in vitro (normal iPSC BC1): significantly promote
- ability of megakaryocyte progenitor cells to form mature MK colony (CFU-MK), increase vs control group [1]: 2.8 folds
- proportion of proplatelet-bearing MKs in 100 differentiated cells [2]: ~42%

Structure (SMILES): CC(C)(C(=O)NCC(F)(F)C(F)(F)F)C(=O)N[C@@H]1C(=O)Nc2ccccc2-c2ccccc21 [RO4929097]
- proportion of HSPCs (CD34+CD45+) (normal iPSC BC1; 10 μM added at Day 0, FIG. 5): ~0%
- proportion of MKPs (CD34+CD41+) (normal iPSC BC1; 10 μM added at Day 0, FIG. 5): ~0%
- proportion of MKs (CD41+CD42+) (normal iPSC BC1; 10 μM added at Day 0, FIG. 5): ~0%
- formation of hematopoietic embryoid body (EB) (normal iPSC BC1; 10 μM added at Day 0 after differentiation): no hematopoietic embryoid body EB was formed; also recorded: no hematopoietic embryoid body (EB) could be formed
- increase of proportion of mature megakaryocytes MKs (CD41+CD42+) produced vs DMSO control (normal iPSC BC1; 10 μM added at Day 2, FIG. 6): 64%
- increase of proportion of megakaryocyte progenitor cells MKPs (CD34+CD41+) produced vs DMSO control (normal iPSC BC1; 10 μM added at Day 2, FIG. 6): 67%
- decrease of proportion of HSPCs (CD34+CD45+) vs DMSO control (normal iPSC BC1; 10 μM added at Day 2): 40%
- proportion of MKPs (CD34+CD41+) produced, increased fold vs DMSO control (set as 1) (normal iPSC BC1; 10 μM added at Day 2): about 1.4 folds
- proportion of mature megakaryocytes MKs (CD41+CD42+) produced, increased fold vs DMSO control (set as 1) (normal iPSC BC1; 10 μM added at Day 2): about 2.5 folds
- number of MKPs (CD34+CD41+) produced, increase vs DMSO control (normal iPSC BC1; 10 μM added at Day 2, FIG. 9): 2.5 folds
- number of mature megakaryocytes MKs (CD41+CD42+) produced, increase vs DMSO control (normal iPSC BC1; 10 μM added at Day 2, FIG. 9): 4.3 folds
- decrease of proportion of HSPCs vs DMSO control (normal iPSC BC1; 10 μM added at Day 5, FIG. 7B): 11%
- proportion of mature megakaryocytes MKs produced, increased fold vs DMSO control (set as 1) (normal iPSC BC1; 10 μM added at Day 5, FIG. 7B): about 2.6 folds
- total number of hematopoietic cells, increase vs control group (normal iPSC BC1; 10 μM added at Day 5, FIG. 7B): did not change
- number of HSPCs (CD34+CD45+), increase vs DMSO control (normal iPSC BC1; 10 μM added at Day 5, FIG. 10): 2.8 folds
- number of MKPs (CD34+CD41+) produced, increase vs DMSO control (normal iPSC BC1; 10 μM added at Day 5, FIG. 10): about 6.5 folds
- number of mature megakaryocytes MKs (CD41+CD42+) produced, increase vs DMSO control (normal iPSC BC1; 10 μM added at Day 5, FIG. 10): about 6.7 folds
- number of MKPs (CD34+CD41+) produced, increase vs DMSO control (normal iPSC BC1; 10 μM added at Day 8, FIG. 12): 1.5 folds
- number of mature megakaryocytes MKs (CD41+CD42+) produced, increase vs DMSO control (normal iPSC BC1; 10 μM added at Day 8, FIG. 12): 1.5 folds
- number of mature megakaryocytes MKs (CD41+CD42+) produced, increase vs DMSO control (normal iPSC BC1; 10 μM added at Day 11, FIG. 13): 1.3 folds
- effect on promoting the production of MKPs and MKs (normal iPSC BC1; 15 μM added at Day 2, FIG. 6, not as significant as 10 μM): a certain effect on promoting the production of MKPs and MKs
- production of megakaryocyte progenitor cells and/or mature megakaryocytes in vitro (normal iPSC BC1): significantly promote
- ability of megakaryocyte progenitor cells to form mature MK colony (CFU-MK), increase vs control group [1]: 2.8 folds
- proportion of proplatelet-bearing MKs in 100 differentiated cells [2]: about 40%
